Holding throughout (type): physicochemical
Data set [1] is described as follows: Intrinsic solubility, log 1/S0 of the compound.
Data set [2] in a line: Lipophilicity, log P of the compound. To be noted: octanol/water.
Data set [3] can be described thus: Dissociation constant, pKa of the compound.

Consider `O=C1CN=C(c2ccccc2Cl)c2cc(Cl)ccc2N1` [DELORAZEPAM], for which the log1/S0 in data set [1] was found to be 3.97.
Turning to `COc1ncnc(NS(=O)(=O)c2ccc(N)cc2)c1OC` [SULFADOXINE], the log1/S0 in data set [1] came to 3.59. This compound came in with a log partition coefficient (logP) in data set [2] of 1.06.
The compound `CCOCCn1c(=O)[nH]c2c(=O)n(CC(=O)NC(C(=O)C(F)(F)F)C(C)C)c(-c3ccccc3)cc2c1=O` (stereo unspecified) registered a log1/S0 in data set [1] of 4.83.
Still for that read-out and setting: the result for `CC(C)C(NC(=O)Cn1c(-c2ccccc2)cc2c(=O)n(C)c(=O)[nH]c2c1=O)C(=O)C(F)(F)F` (stereo unspecified) reads 4.03.
The same measure, in the same setting: the result for `CN1C(=O)CN=C(c2ccccc2)c2cc(Cl)ccc21` [DIAZEPAM] reads 3.83.
Still for that read-out and setting: the result for `COc1cc(NS(=O)(=O)c2ccc(N)cc2)nc(C)n1` [SULFAMETOMIDINE] reads 3.05.
With `COc1ccc(NS(=O)(=O)c2ccc(N)cc2)nn1` [SULFAMETHOXYPYRIDAZINE], the log1/S0 in data set [1] came to 2.55. This compound also gave a logP in data set [2] of 0.4.
On to `Cc1cc(NS(=O)(=O)c2ccc(N)cc2)nc(C)n1` [SULFISOMIDINE], for which, in data set [1], the log1/S0 is on record as 2.78. This compound also registered a lipophilicity (logP) in data set [2] of -0.3.
Turning to `COc1cnc(NS(=O)(=O)c2ccc(N)cc2)nc1`, the log1/S0 in data set [1] was determined as 3.63. For the same compound, the logP in data set [2] was 0.46.
Compound `Nc1ccc(S(=O)(=O)Nc2ncccn2)cc1` [SULFADIAZINE] had a log1/S0 in data set [1] of 3.67. Also, the logP in data set [2] was -0.13.
Turning to `CC(C)C(NC(=O)Cn1c(-c2ccccc2)cc2c(=O)n(CC(N)=O)c(=O)[nH]c2c1=O)C(=O)C(F)(F)F` (stereo unspecified), in data set [1], the log1/S0 is recorded as 3.6.
On the same count and under the same terms, for `CNC(=O)Cn1c(=O)[nH]c2c(=O)n(CC(=O)NC(C(=O)C(F)(F)F)C(C)C)c(-c3ccccc3)cc2c1=O` (stereo unspecified) the value was 3.73.
Same read-out and setting: the result for `COC(OC)n1c(=O)[nH]c2c(=O)n(CC(=O)NC(C(=O)C(F)(F)F)C(C)C)c(-c3ccccc3)cc2c1=O` (stereo unspecified) reads 3.11.
Regarding `Cc1cc(C)nc(NS(=O)(=O)c2ccc(N)cc2)n1` [SULFAMETHAZINE], the logP in data set [2] stood at 0.89.
`Cc1noc(NS(=O)(=O)c2ccc(N)cc2)c1C` [SULFISOXAZOLE]: the log1/S0 in data set [1] came to 3.45. The compound also had a logP in data set [2] of 1.15.
The compound `CN1CCN=C(c2ccccc2)c2cc(Cl)ccc21` [MEDAZEPAM] returned a log1/S0 in data set [1] of 4.41.
Turning to `COc1ccc(Cn2c(=O)[nH]c3c(=O)n(CC(=O)NC(C(=O)C(F)(F)F)C(C)C)c(-c4ccccc4)cc3c2=O)cc1` (stereo unspecified), the log1/S0 in data set [1] is reported as 3.4.
For the compound `CC(C)C(NC(=O)Cn1c(-c2ccccc2)cc2c(=O)n(CCN3CCOCC3)c(=O)[nH]c2c1=O)C(=O)C(F)(F)F` (stereo unspecified), in data set [1], the log1/S0 was determined as 3.44. Further, the pKa in data set [3] was 7.04.
As to `Cc1ccnc(NS(=O)(=O)c2ccc(N)cc2)n1` [SULFAMERAZINE], the logP in data set [2] was 0.13.

By logP is commonly meant the decadic logarithm of the partition coefficient of the neutral form, usually between octanol and water. A high value points to higher lipophilicity. By pKa is commonly meant the pH at which an ionisable group is half protonated. Read a low pKa as a stronger acid or weaker base.

Values taken from ChEMBL document CHEMBL1781917, “Computational aqueous solubility prediction for drug-like compounds in congeneric series” (Eur J Med Chem, 2008).
